Legend:
Type in all cases: cell-based, human
FGFR2 in SNU16 = test: Oncogene RNA measured by RT-qPCR in SNU16 (FGFR2); details: 500 nM JQ1, 6 hours
[1] = tested on: MYC mRNA in COLO320-HSR cells; test: MYC RNA measured by RT-qPCR in COLO320-HSR; details: 500 nM, 6 hours
Experimental: Cells were then treated for 6 hours with 500 nM JQ1 in DMSO unless otherwise indicated (Sigma-Aldrich SML1524) or an equivalent volume of DMSO.
RNA was extracted using RNeasy Plus mini Kit (QIAGEN 74136). Purified RNA was quantified by Nanodrop (Thermo Fisher). For RT-qPCR, 50 ng of RNA, 1× Brilliant II qRT-PCR mastermix with 1 μL RT/RNase block (Agilent 600825), and 200 nM forward and reverse primer were used. Each Ct value was measured using Lightcycler 480 (Roche) and each mean dCt was averaged from duplicate qRT-PCR reaction and performed in biological triplicate. Relative MYC RNA level (RT-qPCR primers MYC_exon3_fw and MYC_exon3_rv) was calculated by ddCt method compared to 18S and GAPDH controls (RT-qPCR primers GAPDH_fw, GAPDH_rv, 18S_fw, 18S_rv). P values were calculated using a Student's t-test by comparing the relative fold change of biological triplicates.
Approximately 0.6×10^6 COLO320-DM or COLO-320-HSR cells were plated in 6 well plates and cultured under standard conditions for 24 hours. Cells were then treated for 6 hours with one of the following: 500 nM JQ1 (Sigma-Aldrich SML1524), 500 nM MS645 (Sigma Aldrich SML2549), 1 μM THZ-1 (Selleck chemicals S7549), 20 μM SGC-SCP30 (Selleck chemicals S7256), 10 μM OICR-9429 (Selleck chemicals S7833), 50 μM MI-3 (Selleck chemicals S7619), 2 μM trichostatin A (Selleck chemicals S1045), or DMSO. […]

[2] = tested on: covalently-linked MYC copies in COLO320-HSR; test: Interphase DNA FISH of chromosomal MYC amplicon (HSR), autocorrelation g(r); details: 500 nM, 6 hours
[3] = tested on: ecDNA hubs in TetO-GFP COLO320-DM cells; test: Live cell imaging of TetR-eGFP-labeled ecDNAs through cell division; details: 500 nM JQ1
Description: sgRNA was designed by E-CRISP (http://www.e-crisp.org/E-CRISP/designcrispr.html) targeting ˜0.5 kb upstream of MYC transcription start site or N-terminal BRD4 gene. The sgRNA was cloned into the modified pX330 (Addgene, Cat #42230) construct co-expressing wild type SpCas9 and a PGK-Venus cassette. ˜500 bp homology arms were PCR amplified from COLO320-DM cells and cloned into a pUC19 donor vector together with ˜96 copies of TetO array and a blasticidin selection cassette
(Addgene #118713) for ecDNA-TetO array or with HaloTag (Addgene #139747) for BRD4. 2 μg of the donor vector and 1 μg of the sgRNA vector were transfected into COLO320-DM cells by lipofectamine 3000. For ecDNA-TetO array, blasticidin (10 ug/ml) selection was applied after 7 days. For BRD4-HaloTag knock-in, 100 nM HaloTag ligand JF549 (a kind gift from Luke Lavis's lab at Janelia Research Campus) was applied to the cells followed by washing and FACS sorting. Individual clones were selected, genotyped by PCR and verified by Sanger sequencing before being tested for imaging. […]
To monitor ecDNA dynamics within the nucleus, the COLO320-DM TetO-eGFP cell line was transfected with the PiggyBac vector expressing H2B-SNAPf and the super PiggyBac transposase (2:1 ratio) as described previously51. […] TetO labeled ecDNA was similarly analyzed as described in previous DNA/RNA FISH section. […]

[4] = tested on: COLO320-DM cells and COLO320-HSR cells; test: JQ1 dose titration: cell viability (CellTiterGlo) and cell proliferation; details: viability 48 hours, proliferation over 72 hours
Experimental: Cells were plated in 96-well plates at 25,000 cells/well in triplicate and incubated either with JQ1 (Sigma-Aldrich SML1524) at the indicated concentrations or an equivalent volume of DMSO for 48 hours. Cell viability was measured using the CellTiterGlo assay kit (Promega G7572) in triplicate with luminescence measured on SpectraMax M5 plate reader with an integration time of 1 second per well. Luminescence was normalized to the DMSO treated controls and p values calculated using a Student's t-test comparing biological triplicates.
Cells were plated in 96-well plates at 10,000 cells/well and incubated either with JQ1 (Sigma-Aldrich SML1524) at the indicated concentrations or an equivalent volume of DMSO. Every 24 hours, cells were harvested and counted on Countess 3 Automated Cell Counter (Thermo Fisher) with Trypan Blue used to assess cell viability. P values were calculated using a Student's t-test comparing biological triplicates.

## Cc1sc2c(c1C)C(c1ccc(Cl)cc1)=N[C@@H](CC(=O)OC(C)(C)C)c1nnc(C)n1-2 [JQ1]
FGFR2 in SNU16
  ecDNA-derived transcription of FGFR2: reduced
[1]
  MYC mRNA level: no significant effect
[2]
  spatial distribution of covalently-linked MYC copies: did not alter
[3]
  ecDNA hub assembly following mitosis: blocked
[4]
  cell killing, COLO320-DM versus COLO320-HSR: modest preferential killing of COLO320-DM cells over HSR cells

Reference: patent US20250304952A1, “DNA ELEMENT RESPONSIVE TO EXTRACHROMOSOMAL DNA IN CANCER CELLS” (The Board of Trustees of the Leland Stanford Junior …, priority 2021, published 2025)
